# Values quoted from earlier work, collected in patent US20050019366A1, “Drug-coated stents and methods of use therefor” (priority 2002, published 2005).
# Tested on: restenosis after angioplasty
# Settings: probucol 500 mg; twice daily for four weeks prior and six months after angioplasty
smiles,measurement,value
"CC(C)(Sc1cc(C(C)(C)C)c(O)c(C(C)(C)C)c1)Sc1cc(C(C)(C)C)c(O)c(C(C)(C)C)c1 [Probucol, probucol]",reduction of the rate of restenosis after angioplasty,~50%
